Data: paper PMC8893300, “A Dynamic Mass Redistribution Assay for the Human Sweet Taste Receptor Uncovers G-Protein Dependent Biased Ligands” (Frontiers in Pharmacology, 2022)
Like-named read-outs stand apart in the source and are kept apart here. Marks after values point to notes of the source that are not given here. Values belong to the molecule of their own block, whether it stands above or below them.

Tests used:
[1] = tested on: EGF response in R2/R3 U2OS cells; test: Pathway blockers on EGF-mediated DMR response in R2/R3 U2OS cells; conditions: for % inhibition of the EGF DMR response / effect on the EGF DMR response, in words: 100–300 ng/ml EGF; for % inhibition of the EGF DMR response: PTx overnight, wortmannin 200 nM, U0126 2 μM, GF109203x 5 μM, mean ± sd; for effect on the EGF DMR response, in words: latrunculin A 1 μM, GW583340 10 μM, tyrphostin 1 μM, GSK269962 2 μM
Protocol: (§2) Blocker stocks (250x) were prepared in DMSO or water and stored as aliquots at −20°C. Just before use, they were diluted to 2X their final concentration in assay buffer (D-PBS) at a final concentration of 0.4% DMSO. Concentrated stock solutions of the agonists somatostatin, carbachol, EGF, and sucralose were made in water or D-PBS while S1P was made up in 50% EtOH. Just before use, the agonists were diluted to 5X their final concentration in D-PBS at a final concentration of 0.4% DMSO. Final agonist concentrations were 10 μM somatostatin, 100 μM carbachol, 100–300 ng/ml EGF, 2 mM sucralose and 1 μM S1P. R2/R3 U2OS cells were plated as described above. The following day cells were washed on the Epic® with D-PBS/0.4% DMSO leaving a residual volume of 10 μl. 10 μl of D-PBS/0.4% DMSO was added to each well by hand followed by 20 μl of 2X pathway blocker. Cell plates were equilibrated on the Epic® for 90 min. After recording the baseline activity for 5 min, 10 μl of 5X agonist was added using the LHA and the DMR responses were monitored for an additional 40 min.
(§3) Cells were equilibrated at room temperature for 90 min in the Epic® reader with the indicated concentrations of pathway blockers or latrunculin A. In the case of PTx, cells were incubated over night at 37°C and on the day of the experiment PTx was replaced with buffer and cells were equilibrated in the Epic® reader as described above. A 5x-concentrated stock of agonist was then added onto the cells and DMR responses were recorded as described in Materials and Methods. […] Two to eight independent experiments were conducted with each blocker (number of independent experiments are indicated on the bar graph).

[2] = tested on: sucralose response (sweet taste receptor) in R2/R3 U2OS cells; test: Pathway blockers on sucralose-mediated DMR response in R2/R3 U2OS cells; conditions: for effect on the sucralose DMR response, in words: latrunculin A 1 μM, PTx overnight, wortmannin 200 nM, U0126 2 μM
Protocol: as §2, §3

[3] = tested on: somatostatin response in R2/R3 U2OS cells; test: Pathway blockers on somatostatin-mediated DMR response in R2/R3 U2OS cells; conditions: for effect on the somatostatin DMR response, in words: latrunculin A 1 μM, wortmannin 200 nM, U0126 2 μM, GSK269962 2 μM
Protocol: as §2, §3

[4] = tested on: S1P response in R2/R3 U2OS cells; test: Pathway blockers on S1P-mediated DMR response in R2/R3 U2OS cells; conditions: for % inhibition of the S1P DMR response: PTx overnight, U0126 2 μM, GF109203x 5 μM, GW583340 10 μM, tyrphostin 1 μM, GSK269962 2 μM, mean ± sd or average of two experiments
Protocol: as §2, §3

[5] = tested on: carbachol response in R2/R3 U2OS cells; test: Pathway blockers on carbachol-mediated DMR response in R2/R3 U2OS cells; conditions: for effect on the carbachol DMR response, in words: latrunculin A 1 μM, wortmannin 200 nM, U0126 2 μM, GSK269962 2 μM
Protocol: as §2, §3

[6] = target: T1, human sweet taste receptor (hT1R2/hT1R3) (Homo sapiens, UniProt Q7RTX0+Q8TE23); test: DMR assay (Epic reader) on R2/R3 U2OS cells, endogenous G proteins; type: cell-based; conditions: for EC50: R2/R3 U2OS cells, peak DMR response
T1 construct: expressed in transfected cells
T1 sequence (Q8TE23 20-839): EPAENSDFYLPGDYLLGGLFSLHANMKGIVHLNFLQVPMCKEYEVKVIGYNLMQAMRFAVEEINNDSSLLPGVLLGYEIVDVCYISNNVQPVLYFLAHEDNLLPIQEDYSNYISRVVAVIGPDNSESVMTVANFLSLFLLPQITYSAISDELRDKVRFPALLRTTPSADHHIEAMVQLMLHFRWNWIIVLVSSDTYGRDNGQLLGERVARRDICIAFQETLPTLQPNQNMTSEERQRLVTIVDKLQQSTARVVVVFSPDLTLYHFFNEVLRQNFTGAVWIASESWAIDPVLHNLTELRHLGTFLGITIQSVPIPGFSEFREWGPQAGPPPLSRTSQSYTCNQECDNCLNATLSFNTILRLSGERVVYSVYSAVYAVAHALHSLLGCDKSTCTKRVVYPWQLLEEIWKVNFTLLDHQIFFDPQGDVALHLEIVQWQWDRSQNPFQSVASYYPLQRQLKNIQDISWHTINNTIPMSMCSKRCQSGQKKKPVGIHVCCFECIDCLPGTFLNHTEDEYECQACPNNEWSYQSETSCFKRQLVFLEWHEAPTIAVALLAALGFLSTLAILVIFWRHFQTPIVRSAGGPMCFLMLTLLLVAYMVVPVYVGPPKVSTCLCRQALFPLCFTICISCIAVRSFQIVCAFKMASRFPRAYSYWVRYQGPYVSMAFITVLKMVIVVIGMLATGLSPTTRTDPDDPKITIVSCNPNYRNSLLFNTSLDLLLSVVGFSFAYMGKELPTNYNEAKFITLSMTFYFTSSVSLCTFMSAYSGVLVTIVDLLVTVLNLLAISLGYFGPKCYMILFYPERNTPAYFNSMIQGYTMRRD
T1 sequence (Q7RTX0 21-852): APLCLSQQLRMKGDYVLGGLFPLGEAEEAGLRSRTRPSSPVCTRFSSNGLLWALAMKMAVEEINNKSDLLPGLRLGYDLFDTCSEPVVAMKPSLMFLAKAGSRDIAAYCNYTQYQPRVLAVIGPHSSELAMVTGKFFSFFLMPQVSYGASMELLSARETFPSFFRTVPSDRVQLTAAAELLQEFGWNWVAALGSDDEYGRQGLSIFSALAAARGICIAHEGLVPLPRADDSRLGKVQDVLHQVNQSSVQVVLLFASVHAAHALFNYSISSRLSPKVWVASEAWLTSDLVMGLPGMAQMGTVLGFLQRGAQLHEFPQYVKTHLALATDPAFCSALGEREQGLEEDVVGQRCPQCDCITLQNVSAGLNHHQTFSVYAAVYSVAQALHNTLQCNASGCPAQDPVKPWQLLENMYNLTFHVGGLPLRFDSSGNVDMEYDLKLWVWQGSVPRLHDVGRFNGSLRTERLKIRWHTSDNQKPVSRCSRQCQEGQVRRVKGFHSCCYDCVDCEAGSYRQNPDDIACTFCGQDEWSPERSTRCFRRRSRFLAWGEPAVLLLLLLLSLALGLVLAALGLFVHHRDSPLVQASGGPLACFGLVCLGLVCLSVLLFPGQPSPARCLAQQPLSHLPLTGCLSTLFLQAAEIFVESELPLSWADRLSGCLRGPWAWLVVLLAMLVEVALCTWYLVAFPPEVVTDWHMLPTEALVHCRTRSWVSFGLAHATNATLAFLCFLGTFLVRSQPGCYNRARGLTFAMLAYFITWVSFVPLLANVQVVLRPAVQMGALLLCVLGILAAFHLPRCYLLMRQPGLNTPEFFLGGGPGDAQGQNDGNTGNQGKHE
Protocol: The plates were incubated in the tissue culture hood for 20 min to allow cells to settle evenly at the bottom of the microplate and further cultured at 37°C in an atmosphere of 5% CO2 for 18–24 h. The next day, the cells were subjected to functional analysis using DMR. […] When indicated, data for agonist dose-responses were normalized to data obtained with a maximum concentration of sucralose (1 mM) and then fitted and plotted using GraphPad Prism (San Diego, CA) and non-linear regression analysis.
(§1) This value, that we termed pEC50Ratio (sucralose) or pEC50R (sucralose), was calculated with EC50 values obtained in the two assay systems. This transformation also allowed determination of an average and a standard error for the pEC50R (sucralose). The two sets of data (DMR and FLIPR data) were then analyzed with an un-paired t-test (α = 0.05). To calculate relative efficacy bias between the two assays, we captured the top asymptote value from each activity-normalized dose-response curve, as provided by the curve fit, calculated an average and a standard deviation (sd) for each agonist and then analyzed the data pairs with an un-paired t-test (α = 0.05). […] The following steps were followed: 1) Using the PRISM software, we re-analyzed each ligand’s dose-response data obtained in each assay with non-linear regression and the users-defined equation “New Operational Model with TauKa ratios” and retrieved logR values from the fits. 2) Subtracted each ligand’s logR value with that of our standard, the sucralose logR value, obtained from the same data set (each ligand dose-response assay data used in this analysis was accompanied with a sucralose dose-response ran on the same day), producing the ΔlogR value for leach ligand in each assay. 3) Calculated the mean and SEM from ΔlogR replicates (from three to nine independent dose-response analysis, in the two different assays). 4) Calculated ΔΔlogR values by subtracting the averaged ligands’ ΔlogR FLIPR values with the averaged ligands’ ΔlogR DMR values.

[7] = target: T2, human sweet taste receptor (hT1R2/hT1R3) coupled to Gα15 (Homo sapiens, UniProt Q7RTX0+Q8TE23); test: FLIPR calcium mobilization assay, R2/R3 U2OS cells transduced with Gα15 baculovirus; type: cell-based; conditions: for EC50: R2/R3 U2OS cells expressing Gα15
T2 construct: expressed in transfected cells
T2 sequence (Q8TE23 20-839): T1 sequence (Q8TE23 20-839)
T2 sequence (Q7RTX0 21-852): T1 sequence (Q7RTX0 21-852)
Protocol: The Gα15 coding sequence was inserted in the HindIII-NotI sites and recombinant virus was generated using the Bac-to-Bac system (Life Technologies). Virus was further amplified by propagation in Sf9 cells grown in suspension using Sf900-II media. Virus titers were determined by plaque assay on Sf9 cells.
Cells were gently mixed with the virus at a multiplicity of infection (MOI) of 5. Using a multidrop, 70 μl per well of the cell and virus mixture was dispensed in a 384-well clear bottom plate (Fisher). After 24 h of incubation in a humidified 37°C tissue culture incubator, trichostatin A was added to a final concentration of 0.3 μM and the cells were incubated for another 18–24 h at 34°C. On the day of the experiment, cells were loaded with 4 μM of the calcium indicator Fluo-4 AM (Invitrogen) in D-PBS for 1 h at room temperature. After washing the cells with D-PBS using a cell washer (BioTek) and a 30-minute rest time, the cell plate and the compound plate were transferred into the FLIPR-Tetra (Molecular Devices). […] Loading and the FLIPR assay were run as described above. When indicated, data for agonist dose-responses were normalized to data obtained with a maximum concentration of sucralose (1 mM) and then fitted and plotted using GraphPad Prism (San Diego, CA) and non-linear regression analysis.
as §1

[8] = Homo sapiens, U2OS, read-out: % inhibition of the sucralose DMR response
[9] = Homo sapiens, U2OS, read-out: % inhibition of the somatostatin DMR response
[10] = Homo sapiens, U2OS, read-out: % inhibition of the S1P DMR response
[11] = Homo sapiens, U2OS, read-out: % inhibition of the carbachol DMR response

Structure (SMILES): CN(C)CCCn1cc(C2=C(c3c[nH]c4ccccc34)C(=O)NC2=O)c2ccccc21 [GF109203x]
- % inhibition of the EGF DMR response [1]: 22 ± 11%
- % inhibition of the sucralose DMR response ([2]; 2 mM sucralose, GF109203x 5 μM, GW583340 10 μM, tyrphostin 1 μM, mean ± sd or average of two experiments): −7 ± 10%
- % inhibition of the somatostatin DMR response ([3]; 10 μM somatostatin, PTx overnight, GF109203x 5 μM, GW583340 10 μM, tyrphostin 1 μM, mean ± sd or average of two experiments): 8%
- % inhibition of the S1P DMR response ([4]; 1 μM S1P): 15%
- % inhibition of the carbachol DMR response ([5]; 100 μM carbachol, PTx overnight, GF109203x 5 μM, GW583340 10 μM, tyrphostin 1 μM, mean ± sd or average of two experiments): 67 ± 4%

Structure (SMILES): CCn1c(-c2nonc2N)nc2cnc(Oc3cccc(NC(=O)c4ccc(OCCN5CCOCC5)cc4)c3)cc21 [GSK269962]
- effect on the EGF DMR response, in words [1]: not affected
- % enhancement of the sucralose DMR response ([2]; 2 mM sucralose, GSK269962 2 μM, mean ± sd, n = 3): 28 ± 11%
- effect on the somatostatin DMR response, in words ([3]; 10 μM somatostatin): not affected
- % inhibition of the S1P DMR response ([4]; 1 μM S1P): 77 ± 14%
- effect on the carbachol DMR response, in words ([5]; 100 μM carbachol): not affected

Structure (SMILES): CS(=O)(=O)CCNCc1nc(-c2ccc3ncnc(Nc4ccc(OCc5cccc(F)c5)c(Cl)c4)c3c2)cs1 [GW583340]
- effect on the EGF DMR response, in words [1]: abolished
- inhibition at 10 µM [2, 8]: 3.1%
- inhibition at 10 µM [3, 9]: -0.3%
- inhibition at 10 µM [4, 10]: -16%
- inhibition at 10 µM [5, 11]: 7.6%

Structure (SMILES): C/C1=C/C(=O)O[C@@H]2C[C@@H](CC[C@H](C)/C=C\C=C\CC1)O[C@@](O)([C@@H]1CSC(=O)N1)C2 [Latrunculin A]
- effect on the EGF DMR response, in words [1]: disrupted
- effect on the sucralose DMR response, in words ([2]; 2 mM sucralose): disrupted
- effect on the somatostatin DMR response, in words ([3]; 10 μM somatostatin): disrupted
- effect on the S1P DMR response, in words ([4]; 1 μM S1P, latrunculin A 1 μM): disrupted
- effect on the carbachol DMR response, in words ([5]; 100 μM carbachol): disrupted

Structure (SMILES): N#CC(=C(/N)Sc1ccccc1N)/C(C#N)=C(/N)Sc1ccccc1N [U0126]
- % inhibition of the EGF DMR response [1]: 54 ± 15%
- effect on the sucralose DMR response, in words ([2]; 2 mM sucralose): no statistically significant effects
- effect on the somatostatin DMR response, in words ([3]; 10 μM somatostatin): no statistically significant effects
- % inhibition of the S1P DMR response ([4]; 1 μM S1P): 19 ± 26%
- effect on the carbachol DMR response, in words ([5]; 100 μM carbachol): no statistically significant effects

- EC50 ([6]; read-out: Activity in DMR assay EC50): 1220 µM
- EC50 ([6]; read-out: Activity in DMR assay pEC50 (converted)): 906 µM
- ΔlogR DMR Mean ([6]; Table 2, operational model, logR minus sucralose logR): −0.99
- Activity in DMR assay Emax ([6]; top asymptote of dose-response normalized to 1 mM sucralose): 122
- ΔlogR FLIPR Mean ([7]; FLIPR-Gα15, operational model, logR minus sucralose logR): −0.74
- Activity in FLIPR assay Emax ([7]; Gα15, top asymptote of dose-response normalized to 1 mM sucralose): 73****
- EC50 ([7]; read-out: Activity in FLIPR assay EC50): 253 µM
- EC50 ([7]; read-out: Activity in FLIPR assay pEC50 (converted)): 251 µM
- Bias factor ([7]; inverse log of ΔΔlogR, FLIPR-Gα15 vs DMR): 1.8
Structure (SMILES): CC1=CC(=O)NS(=O)(=O)O1 [acesulfame K]

Structure (SMILES): COc1cc2ncnc(Nc3cccc(Cl)c3)c2cc1OC [tyrphostin, Tyrphostin AG 1478]
- effect on the EGF DMR response, in words [1]: abolished
- inhibition at 1 µM [2, 8]: 2.6%
- inhibition at 1 µM [3, 9]: 3.1%
- inhibition at 1 µM [4, 10]: -7%
- inhibition at 1 µM [5, 11]: -10.8%

Structure (SMILES): COC[C@H]1OC(=O)c2coc3c2[C@@]1(C)C1=C(C3=O)[C@@H]2CCC(=O)[C@@]2(C)C[C@H]1OC(C)=O [wortmannin]
- inhibition at 0.2 µM ([1]; Homo sapiens, U2OS, read-out: % inhibition of the EGF DMR response): 42 ± 10%
- effect on the sucralose DMR response, in words ([2]; 2 mM sucralose): no statistically significant effects
- effect on the somatostatin DMR response, in words ([3]; 10 μM somatostatin): no statistically significant effects
- % enhancement of the S1P DMR response ([4]; 1 μM S1P, wortmannin 200 nM, mean ± sd, n = 4): 61 ± 22%
- effect on the carbachol DMR response, in words ([5]; 100 μM carbachol): no statistically significant effects
